Measurements: patent publication US20240208992A1, “MACROCYCLES AS CFTR MODULATORS” (Idorsia Pharmaceuticals Ltd, priority 2021, published 2024)

Molecular target: human F508del-CFTR (Homo sapiens, UniProt P13569, DEL508-508)
Test: F508del-CFTR cell surface expression (corrector activity), DiscoveRx ß-galactosidase complementation chemiluminescence assay in recombinant U2OS cell line;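 further: U2OS cells co-expressing ProLink-tagged F508del-CFTR and a membrane-anchored enzyme acceptor, where more surface CFTR restores β-galactosidase activity measured by chemiluminescence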
Settings: for EC50: EC50, F508del-CFTR cell surface expression; for Emax: U2OS
[1] = U2OS cell line, 16h compound incubation, geomean values
[2] = in relation to the Emax of the corrector lumacaftor (=100%), U2OS cell line, 16h compound incubation, arithmetic mean values
[3] = U2OS cells, 16h compound incubation, geomean values
[4] = in relation to Emax of corrector lumacaftor (=100%), arithmetic mean values

Chain of human F508del-CFTR (P13569 with tags, fused parts or gaps DEL508-508): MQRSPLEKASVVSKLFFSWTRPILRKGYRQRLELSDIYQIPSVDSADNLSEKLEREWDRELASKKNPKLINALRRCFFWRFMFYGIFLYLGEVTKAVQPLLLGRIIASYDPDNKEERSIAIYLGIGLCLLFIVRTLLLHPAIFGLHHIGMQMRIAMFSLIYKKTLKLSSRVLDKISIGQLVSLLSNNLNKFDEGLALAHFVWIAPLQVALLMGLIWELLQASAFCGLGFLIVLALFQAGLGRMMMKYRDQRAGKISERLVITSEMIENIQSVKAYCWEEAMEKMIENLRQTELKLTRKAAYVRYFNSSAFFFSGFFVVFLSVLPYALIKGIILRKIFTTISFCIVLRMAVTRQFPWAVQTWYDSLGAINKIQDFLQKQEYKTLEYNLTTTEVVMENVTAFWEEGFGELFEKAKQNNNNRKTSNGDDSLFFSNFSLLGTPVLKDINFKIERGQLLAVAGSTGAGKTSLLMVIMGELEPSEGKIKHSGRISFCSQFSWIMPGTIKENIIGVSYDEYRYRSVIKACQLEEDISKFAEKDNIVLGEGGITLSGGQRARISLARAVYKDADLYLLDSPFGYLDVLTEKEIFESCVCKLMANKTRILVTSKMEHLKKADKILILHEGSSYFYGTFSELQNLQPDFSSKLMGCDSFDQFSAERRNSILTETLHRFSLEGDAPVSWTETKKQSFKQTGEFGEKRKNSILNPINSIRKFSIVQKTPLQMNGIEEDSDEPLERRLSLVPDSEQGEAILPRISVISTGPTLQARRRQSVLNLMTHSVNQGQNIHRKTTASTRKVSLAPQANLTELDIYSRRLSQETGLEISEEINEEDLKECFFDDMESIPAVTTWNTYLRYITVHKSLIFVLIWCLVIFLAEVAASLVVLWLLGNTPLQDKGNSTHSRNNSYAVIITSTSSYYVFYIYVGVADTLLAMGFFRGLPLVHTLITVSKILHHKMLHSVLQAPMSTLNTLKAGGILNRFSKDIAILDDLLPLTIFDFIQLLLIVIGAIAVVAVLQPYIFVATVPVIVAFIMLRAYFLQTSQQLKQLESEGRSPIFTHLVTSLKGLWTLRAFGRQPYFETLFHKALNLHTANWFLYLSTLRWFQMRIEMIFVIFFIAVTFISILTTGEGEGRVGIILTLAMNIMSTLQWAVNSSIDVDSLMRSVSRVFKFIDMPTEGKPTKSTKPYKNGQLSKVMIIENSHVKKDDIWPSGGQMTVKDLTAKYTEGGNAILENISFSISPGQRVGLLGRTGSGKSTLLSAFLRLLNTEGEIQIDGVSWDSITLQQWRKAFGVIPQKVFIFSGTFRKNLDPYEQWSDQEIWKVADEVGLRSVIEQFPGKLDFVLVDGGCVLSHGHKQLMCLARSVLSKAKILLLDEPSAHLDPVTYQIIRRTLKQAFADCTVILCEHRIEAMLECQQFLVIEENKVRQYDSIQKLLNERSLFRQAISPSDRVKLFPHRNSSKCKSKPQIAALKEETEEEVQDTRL

## COc1ccc(C2(CNC(=O)[C@@H]3CC(=O)N(C)[C@@H](CC(C)C)C(=O)N(C)C4(CC4)C(=O)N[C@H](Cc4ccccc4)COc4cnc5ccc(F)cc5c4C(=O)N3)CC2)cc1OC [Example 166, (3′S,7′S,13′R)-13′-benzyl-N-((1-(3,4-dimethoxyphenyl)cyclopropyl)methyl)-20′-fluoro-7′-isobutyl-6′,9′-dimethyl-1′,5′,8′,11′-tetraoxo-2′,3′,4′,5′,6′,7′,8′,9′,11′,12′,13′,14′-dodecahydro-1′H-spiro[cyclopropane-1,10′-[1]oxa[4,7,10,14]tetraazacycloheptadecino[17,16-c]quinoline]-3′-carboxamide]
[1]
  EC50: 624 nM
[2]
  Emax: 111%

## CC(C)C[C@H]1C(=O)N2CCCC[C@@H]2C(=O)N[C@H](Cc2ccccc2)COc2cnc3c(F)cccc3c2C(=O)N[C@H](C(=O)NCCc2noc(C3CC3)n2)CC(=O)N1C [Example 498, (9S,13S,19aR,22R)-22-benzyl-N-(2-(5-cyclopropyl-1,2,4-oxadiazol-3-yl)ethyl)-3-fluoro-13-isobutyl-12-methyl-7,11,14,20-tetraoxo-7,8,9,10,11,12,13,14,17,18,19,19a,20,21,22,23-hexadecahydro-16H-pyrido[2′,11:6,7][1]oxa[4,7,10,14]tetraazacycloheptadecino[17,16-c]quinoline-9-carboxamide]
[3]
  EC50: 198 nM
[4]
  Emax: 313%

## COc1cccc(CCNC(=O)[C@@H]2CC(=O)N(C)[C@@H](CC(C)C)C(=O)N(C)CC(=O)N[C@H](Cc3ccccc3)COc3cc4c(cc3C(=O)N2)OCO4)c1OC (mixture of isomers) [Example 151, (7R,13S,17RS)-7-benzyl-N-(2,3-dimethoxyphenethyl)-13-isobutyl-11,14-dimethyl-9,12,15,19-tetraoxo-6,7,8,9,10,11,12,13,14,15,16,17,18,19-tetradecahydro-[1,3]dioxolo[4′,5′:4,5]benzo[1,2-p][1]oxa[4,7,10,14]tetraazacycloheptadecine-17-carboxamide]
[1]
  EC50: 759 nM

## CC(C)C[C@H]1C(=O)N2CCN(C3CC3)C[C@@H]2C(=O)N[C@H](Cc2ccccc2)COc2cnc3ccccc3c2C(=O)N[C@H](C(=O)NCCc2ccc3c(c2)OCO3)CC(=O)N1C [Example 393, (9S,13S,19aR,22R)-N-(2-(benzo[d][1,3]dioxol-5-yl)ethyl)-22-benzyl-18-cyclopropyl-13-isobutyl-12-methyl-7,11,14,20-tetraoxo-7,8,9,10,11,12,13,14,17,18,19,19a,20,21,22,23-hexadecahydro-16H-pyrazino[2′,11:6,7][1]oxa[4,7,10,14]tetraazacycloheptadecino[17,16-c]quinoline-9-carboxamide]
[1]
  EC50: 118 nM
[2]
  Emax: 314%

## Cc1cc(CCNC(=O)[C@@H]2CC(=O)N(C)[C@@H](CC3CCCC3)C(=O)N3CCCC[C@@H]3C(=O)N[C@H](Cc3ccccc3)COc3ccc4c(C)noc4c3C(=O)N2)on1 [Example 630, (8S,12S,18aR,21R)-21-benzyl-12-(cyclopentylmethyl)-3,11-dimethyl-N-(2-(3-methylisoxazol-5-yl)ethyl)-6,10,13,19-tetraoxo-6,7,8,9,10,11,12,13,16,17,18,18a,19,20,21,22-hexadecahydro-15H-isoxazolo[4′,5′:5,6]benzo[1,2-p]pyrido[2,1-f][1]oxa[4,7,10,14]tetraazacycloheptadecine-8-carboxamide]
[3]
  EC50: 261 nM
[4]
  Emax: 175%

## COc1cccc(CCNC(=O)[C@@H]2CC(=O)N(C)[C@@H](CC(C)C)C(=O)N(C)CC(=O)N[C@H](Cc3ccccc3)COc3ccc4nc(C)oc4c3C(=O)N2)c1 [Example 598, (8R,14S,18S)-8-benzyl-14-isobutyl-N-(3-methoxyphenethyl)-2,12,15-trimethyl-10,13,16,20-tetraoxo-7,8,9,10,11,12,13,14,15,16,17,18,19,20-tetradecahydrooxazolo[4′,5′:5,6]benzo[1,2-p][1]oxa[4,7,10,14]tetraazacycloheptadecine-18-carboxamide]
[3]
  EC50: 759 nM
[4]
  Emax: 312%

## CC(C)C[C@H]1C(=O)N2CCCC[C@@H]2C(=O)N[C@H](Cc2ccccc2)COc2ccc3ncccc3c2C(=O)N[C@H](C(=O)NCCc2cc(C3CC3)no2)CC(=O)N1C [Example 514, (9S,13S,19aR,22R)-22-benzyl-N-(2-(3-cyclopropylisoxazol-5-yl)ethyl)-13-isobutyl-12-methyl-7,11,14,20-tetraoxo-7,8,9,10,11,12,13,14,17,18,19,19a,20,21,22,23-hexadecahydro-16H-pyrido[2′,11:6,7][1]oxa[4,7,10,14]tetraazacycloheptadecino[16,17-f]quinoline-9-carboxamide]
[3]
  EC50: 170 nM
[4]
  Emax: 304%

## COc1cccc2c1C(=O)N[C@H](C(=O)NCC[C@H]1COc3ccccc3O1)CC(=O)N(C)[C@@H](CC(C)C)C(=O)N(CCC1CCCCC1)CC(=O)N[C@H](Cc1ccccc1)CO2 (racemic) [Example 213, (3R,9S,13S)-3-benzyl-7-(2-cyclohexylethyl)-N-(2-((RS)-2,3-dihydrobenzo[b][1,4]dioxin-2-yl)ethyl)-9-isobutyl-16-methoxy-10-methyl-5,8,11,15-tetraoxo-2,3,4,5,6,7,8,9,10,11,12,13,14,15-tetradecahydrobenzo[p][1]oxa[4,7,10,14]tetraazacycloheptadecine-13-carboxamide]
[1]
  EC50: 292 nM
[2]
  Emax: 100%

## CC(C)C[C@H]1C(=O)N(C)[C@H](C)C(=O)N[C@H](Cc2ccccc2)COc2ccc3ncc(F)cc3c2C(=O)N[C@H](C(=O)NCCc2noc(C3CC3)n2)CC(=O)N1C [Example 799, (3S,7S,10R,13R)-13-benzyl-N-(2-(5-cyclopropyl-1,2,4-oxadiazol-3-yl)ethyl)-20-fluoro-7-isobutyl-6,9,10-trimethyl-1,5,8,11-tetraoxo-1,2,3,4,5,6,7,8,9,10,11,12,13,14-tetradecahydro-[1]oxa[4,7,10,14]tetraazacycloheptadecino[16,17-f]quinoline-3-carboxamide]
U2OS cells, 16h compound incubation, geomean of several measurements
  EC50: 258 nM
In relation to the Emax of the corrector lumacaftor (=100%), U2OS cells, 16h compound incubation, arithmetic mean
  Emax: 335%

## COc1cc(OC)c2c(c1)OC[C@@H](Cc1ccccc1)NC(=O)[C@H]1CCCCN1C(=O)[C@H](CC(C)C)N(C)C(=O)C[C@@H](C(=O)NCCc1cc(C)no1)NC2=O [Example 609, (7S,11S,20R,22aR)-20-benzyl-7-isobutyl-14,16-dimethoxy-8-methyl-N-(2-(3-methylisoxazol-5-yl)ethyl)-6,9,13,22-tetraoxo-1,3,4,6,7,8,9,10,11,12,13,19,20,21,22,22a-hexadecahydro-2H-benzo[p]pyrido[2,1-f][1]oxa[4,7,10,14]tetraazacycloheptadecine-11-carboxamide]
[3]
  EC50: 574 nM
[4]
  Emax: 320%

## [2H]C([2H])([2H])Oc1nc(C)cc2c1C(=O)N[C@H](C(=O)NCCc1cc(C3CC3)no1)CC(=O)N(C)[C@@H](CC(C)C)C(=O)N1CCCC[C@@H]1C(=O)N[C@H](Cc1ccccc1)CO2 [Example 659, (7S,11S,17aR,20R)-20-benzyl-N-(2-(3-cyclopropylisoxazol-5-yl)ethyl)-11-isobutyl-4-(methoxy-d3)-2,10-dimethyl-5,9,12,18-tetraoxo-5,6,7,8,9,10,11,12,15,16,17,17a,18,19,20,21-hexadecahydro-14H-dipyrido[2,1-f:3′,4′-p][1]oxa[4,7,10,14]tetraazacycloheptadecine-7-carboxamide]
[3]
  EC50: 359 nM
[4]
  Emax: 325%
